In patent US20170050957A1, “4-AMINO-6-(HETEROCYCLIC)PICOLINATES AND 6-AMINO-2-(HETEROCYCLIC)PYRIMIDINE-4-CARBOXYLATES AND THEIR USE AS HERBICIDES” (Dow AgroSciences LLC, priority 2013, published 2017):
Like-named read-outs stand apart in the source and are kept apart here.

Assays:
[1] = system: Key Broadleaf Weed and Crop Species; assay: Post-emergent Test II herbicidal activity (Table 15); assay type: in vivo; settings: post-emergence, 336 h, 14 d; for pest or weed control at 35 g/ha: 35 g ai/ha; for pest or weed control at 70 g/ha: 70 g ai/ha; for pest or weed control at 140 g/ha: 140 g ai/ha
Procedure, shortened: (§1)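 Plants at first-second true leaf stage, grown 7-21 d in greenhouse (~15 h photoperiod, 23-29 °C day), were track-sprayed at 187 L/ha with compound in acetone/DMSO/water/isopropanol/crop oil/Triton X-155 at a high rate plus 1/2× to 1/16× dilutions. Injury scored visually after 14 d versus untreated plants, 0 (none) to 100% (complete kill).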

[2] = system: Key Grass and Sedge Weeds as well as Grass Crops; assay: Post-emergent Test II herbicidal activity (Table 16); assay type: in vivo; settings: post-emergence, 336 h, 14 d; for pest or weed control at 35 g/ha: 35 g ai/ha; for pest or weed control at 70 g/ha: 70 g ai/ha; for pest or weed control at 140 g/ha: 140 g ai/ha
Procedure, shortened: as §1

[3] = Abutilon theophrasti, velvetleaf (Abutilon theophrasti), read-out: Visual Growth Reduction (%) 14 Days After Application, ABUTH
[4] = Amaranthus retroflexus, redroot pigweed (Amaranthus retroflexus), read-out: Visual Growth Reduction (%) 14 Days After Application, AMARE
[5] = Brassica napus, oilseed rape, canola (Brassica napus), read-out: Visual Growth Reduction (%) 14 Days After Application, BRSNN
[6] = Chenopodium album, lambsquarters (Chenopodium album), read-out: Visual Growth Reduction (%) 14 Days After Application, CHEAL
[7] = Euphorbia heterophylla, wild poinsettia (Euphorbia heterophylla), read-out: Visual Growth Reduction (%) 14 Days After Application, EPHHL
[8] = Helianthus annuus, sunflower (Helianthus annuus), read-out: Visual Growth Reduction (%) 14 Days After Application, HELAN
[9] = Cyperus esculentus, yellow nutsedge (Cyperus esculentus), read-out: Visual Growth Reduction (%) 14 Days After Application, CYPES
[10] = Echinochloa crus-galli, barnyardgrass (Echinochloa crus-galli), read-out: Visual Growth Reduction (%) 14 Days After Application, ECHCG
[11] = Oryza sativa, rice (Oryza sativa), read-out: Visual Growth Reduction (%) 14 Days After Application, ORYSA
[12] = Setaria faberi, giant foxtail (Setaria faberi), read-out: Visual Growth Reduction (%) 14 Days After Application, SETFA
[13] = Triticum aestivum, wheat, spring (Triticum aestivum), read-out: Visual Growth Reduction (%) 14 Days After Application, TRZAS
[14] = Zea mays, maize, corn (Zea mays), read-out: Visual Growth Reduction (%) 14 Days After Application, ZEAMX

| SMILES | pest or weed control at 35 g/ha [1, 3] [%] | pest or weed control at 70 g/ha [1, 3] [%] | pest or weed control at 140 g/ha [1, 3] [%] | pest or weed control at 35 g/ha [1, 4] [%] | pest or weed control at 70 g/ha [1, 4] [%] | pest or weed control at 140 g/ha [1, 4] [%] | pest or weed control at 35 g/ha [1, 5] [%] | pest or weed control at 70 g/ha [1, 5] [%] | pest or weed control at 140 g/ha [1, 5] [%] | pest or weed control at 35 g/ha [1, 6] [%] | pest or weed control at 70 g/ha [1, 6] [%] | pest or weed control at 140 g/ha [1, 6] [%] | pest or weed control at 35 g/ha [1, 7] [%] | pest or weed control at 70 g/ha [1, 7] [%] | pest or weed control at 140 g/ha [1, 7] [%] | pest or weed control at 35 g/ha [1, 8] [%] | pest or weed control at 70 g/ha [1, 8] [%] | pest or weed control at 140 g/ha [1, 8] [%] | pest or weed control at 35 g/ha [2, 9] [%] | pest or weed control at 70 g/ha [2, 9] [%] | other results |
| --- | --- | --- | --- | --- | --- | --- | --- | --- | --- | --- | --- | --- | --- | --- | --- | --- | --- | --- | --- | --- | --- |
| COc1c(N)nc(-c2cc3[nH]ccc3cc2F)nc1C(=O)O [Compound 1.37] | 0 to 29 | 0 to 29 | 0 to 29 | 0 to 29 | 0 to 29 | 0 to 29 | 30 to 44 | 60 to 74 | 75 to 84 | 0 to 29 | 0 to 29 | 0 to 29 | 0 to 29 | 0 to 29 | 0 to 29 | 0 to 29 | 0 to 29 | 0 to 29 | 0 to 29 | 0 to 29 | pest or weed control at 140 g/ha [2, 9]: 0 to 29%; pest or weed control at 35 g/ha [2, 10]: 0 to 29%; pest or weed control at 70 g/ha [2, 10]: 0 to 29%; pest or weed control at 140 g/ha [2, 10]: 0 to 29%; pest or weed control at 35 g/ha [2, 11]: 0 to 29%; pest or weed control at 70 g/ha [2, 11]: 0 to 29%; pest or weed control at 140 g/ha [2, 11]: 0 to 29%; pest or weed control at 35 g/ha [2, 12]: 0 to 29%; pest or weed control at 70 g/ha [2, 12]: 0 to 29%; pest or weed control at 140 g/ha [2, 12]: 0 to 29%; pest or weed control at 35 g/ha [2, 13]: 0 to 29%; pest or weed control at 70 g/ha [2, 13]: 0 to 29%; pest or weed control at 140 g/ha [2, 13]: 0 to 29%; pest or weed control at 35 g/ha [2, 14]: 0 to 29%; pest or weed control at 70 g/ha [2, 14]: 0 to 29%; pest or weed control at 140 g/ha [2, 14]: 0 to 29% |
| COC(=O)c1nc(-c2ccc(Cl)c3cc[nH]c23)c(F)c(N)c1Cl [Compound 1.46] | 0 to 29 | 0 to 29 | 0 to 29 | 0 to 29 | 0 to 29 | 60 to 74 | 0 to 29 | 0 to 29 | 0 to 29 | 75 to 84 | 85 to 94 | 95 to 100 | 0 to 29 | 0 to 29 | 0 to 29 | 0 to 29 | 30 to 44 | 45 to 59 | 0 to 29 | 0 to 29 | pest or weed control at 140 g/ha [2, 9]: 0 to 29%; pest or weed control at 35 g/ha [2, 10]: 0 to 29%; pest or weed control at 70 g/ha [2, 10]: 0 to 29%; pest or weed control at 140 g/ha [2, 10]: 0 to 29%; pest or weed control at 35 g/ha [2, 11]: 0 to 29%; pest or weed control at 70 g/ha [2, 11]: 0 to 29%; pest or weed control at 140 g/ha [2, 11]: 0 to 29%; pest or weed control at 35 g/ha [2, 12]: 0 to 29%; pest or weed control at 70 g/ha [2, 12]: 0 to 29%; pest or weed control at 140 g/ha [2, 12]: 0 to 29%; pest or weed control at 35 g/ha [2, 13]: 0 to 29%; pest or weed control at 70 g/ha [2, 13]: 0 to 29%; pest or weed control at 140 g/ha [2, 13]: 0 to 29%; pest or weed control at 35 g/ha [2, 14]: 0 to 29%; pest or weed control at 70 g/ha [2, 14]: 0 to 29%; pest or weed control at 140 g/ha [2, 14]: 0 to 29% |
